Structures can show the parent of a compound that is named as a salt.
Assays:
[1] = Example 2: maximum diurnal systolic blood pressure, combination with a β1-selective agent; type: in vivo, human; details: person
From the text: “Maximum diurnal” systolic or diastolic BP is a measure of highest systolic or diastolic blood pressure recorded in a 24-hour period. Without being bound by any particular theory, it is believed that a maximal diurnal BP reflects the peak of the natural diurnal blood pressure cycle, typically occurring in the morning, for example between about 5 am and about 11 am. Commonly, a second peak occurs in the evening, for example between about 5 pm and 10 pm. Such a bimodal waveform diurnal ambulatory BP pattern may be especially characteristic of resistant hypertension.
Effect of 50 mg Once Daily Dosage A2-73 Combination Treatment with a β1-Selective Agent.
The subject continues on the metoprolol tartrate, and is started on oral A2-73 at a daily dosage of 50 mg/day for a period of 25 days. Their maximum diurnal systolic blood pressure is then measured at 135 mg Hg and maintained indefinitely with the combined metoprolol tartrate and daily oral dose of 50 mg of A2-73.

[2] = Example 3: trough systolic blood pressure, combination with a thiazine diuretic; type: in vivo, human; details: person
Method: Effect of 10 mg Once Daily Dosage A2-73 Combination Treatment with a Thiazine Diuretic.
The subject continues on the chlorothalidone and is started on oral A2-73 at a daily dosage of 10 mg/day for a period of 25 days. Their trough systolic blood pressure is then measured at 135 mg Hg and maintained indefinitely with the combined chlorothalidone and daily oral dose of 10 mg of A2-73.

[3] = Phase IIa clinical trial in Alzheimer's disease patients, post-hoc evaluation of systolic blood pressure; type: in vivo, human
Method: FIG. 1 is a graph of systolic blood pressure readings of 32 human patients of both sexes, across multiple visits, adjusted for time of BP measurement, gender, age, body mass index, and previous or concurrent use of antihypertensive medication.
BPs were measured at four time points during the study period: 1) the day of screening for enrollment, 2) day one of treatment with either oral or intravenous medication (BP measurements were obtained prior to medication administration), 3) day 25 of treatment (when patients crossed over to receive whichever formulation, oral or intravenous, they had not received previously), and 4) day 36 (conclusion of the PART A of the Phase IIa study). Statistical analyses included paired t-testing comparing changes in BPs across each measurement, as well as multivariable linear mixed effects modeling (adjusted for time of measurement, gender, age, body mass index, and use of antihypertensive medication) to account for within-individual repeated measurements over time.
Thirty-two Alzheimer's disease patients took part in the phase IIa trial. Mean age was 69.5 (standard deviation [SD] 9.8) years, 60% were male, mean body mass index was 26.5 (SD 3.9) kg/m2, and 50% were on antihypertensive medication at the time of screening. […] In multivariable adjusted models (FIG. 1), there was no significant difference in SBP between the first and second readings (p=0.211). […] Of note, no patients reported any changes in their antihypertensive regimen while taking part in the trial.

[4] = Example 1: 24-hour ambulatory systolic blood pressure in a patient with high SBP; type: in vivo, human; details: person
Method: Another measure of blood pressure is “24-hour ambulatory” blood pressure. A “24-hour ambulatory” systolic or diastolic BP is an average of systolic or diastolic measurements taken repeatedly in the course of a 24-hour period, in an ambulatory subject.
Effect of 5 mg and 30 mg Once Daily dosage A2-73.
The dose of A2-73 is then increased so that the subject is administered A2-73 daily, at a dosage of 30 mg/day for a period of 25 days. His 24-hour ambulatory systolic blood pressure is then measured at 135 mg Hg and maintained indefinitely with the daily oral dose of 30 mg of A2-73.

[5] = cited from earlier work
[6] = single oral dose, healthy male volunteers

COCCc1ccc(OCC(O)CNC(C)C)cc1 (racemic) [metoprolol tartrate, (RS)-1-[4-(2-Methoxyethyl)phenoxy]-3-[(propan-2-yl)amino]propan-2-ol, reference compound]
maximum diurnal systolic blood pressure ([1]; metoprolol tartrate 50 mg twice daily, before A2-73): 150 mg Hg

NS(=O)(=O)c1cc(C2(O)NC(=O)c3ccccc32)ccc1Cl (racemic) [chlorothalidone, (RS)-2-Chloro-5-(1-hydroxy-3-oxo-2,3-dihydro-1H-isoindol-1-yl)benzene-1-sulfonamide, reference compound]
trough systolic blood pressure ([2]; chlorothalidone 25 mg orally once a day, before A2-73): 150 mg Hg

CN(C)CC1CCOC1(c1ccccc1)c1ccccc1.Cl (centres unmarked) [A2-73, tetrahydro-N,N-dimethyl-2,2-diphenyl-3-furanmethanamine hydrochloride]
tolerability in human patients ([3]; Phase I and Phase IIa clinical trials): well tolerated
change in SBP, first reading vs other subsequent readings (day 25, day 36) ([3]; multivariable adjusted models (FIG. 1), p=0.048 and 0.008): significant decline in SBP
change in SBP, second measurement (day one, pre-dose) vs all subsequent measurements ([3]; unadjusted analyses, p=0.120 and 0.972 (day 25, day 36)): no significant decline
change in SBP, first measurement vs all subsequent measurements ([3]; unadjusted analyses, paired t-test, p=0.007, 0.001 and 0.007, 32 Alzheimer's disease patients, oral or intravenous): significant decline in SBP
24-hour ambulatory systolic blood pressure ([4]; 5 mg A2-73 orally once a day): 150 mg Hg
24-hour ambulatory systolic blood pressure ([4]; A2-73 30 mg/day oral for 25 days): 135 mg Hg
maximum diurnal systolic blood pressure ([1]; oral A2-73 50 mg/day for 25 days, combined with continued metoprolol tartrate 50 mg twice daily): 135 mg Hg
trough systolic blood pressure ([2]; oral A2-73 10 mg/day for 25 days, combined with continued chlorothalidone 25 mg once a day): 135 mg Hg
observed adverse events ([5]; at the highest doses): moderate and reversible dizziness and headache
blood pressure, resting heart rate, vital signs and 12-lead ECG changes ([5]; in vivo, po): did not show any clinically relevant or dose-dependent changes
pharmacokinetics ([5]; in vivo, po): suitable for daily oral dosing
serious adverse events ([5]; single ascending oral dose, 22 healthy male volunteers): No serious adverse events occurred
maximum tolerable dose [5, 6]: 55 mg
minimum intolerable dose [5, 6]: 60 mg
safety and tolerability of ascending single oral doses ([5]; single oral doses of 1, 10, 30, 40, 50 and 55 mg, healthy subjects): safe and well tolerated

Reference: patent US11622955B2, “Sigma-1 receptor agonist systolic blood pressure therapy” (ANAVEX LIFE SCIENCES CORP., priority 2017, dated 2023)
